Source: ChEMBL document CHEMBL1697821, “Development of a phospholipidosis database and predictive quantitative structure-activity relationship (QSAR) models” (Toxicol Mech Methods, 2008)

Test system: Phospholipidosis
Assay: Literature-mined public compounds from Kruhlak et al phospholipidosis modelling dataset

CCCCC[C@H](O)/C=C/[C@@H]1[C@H]2C/C(=C/CCCC(=O)O)O[C@H]2C[C@H]1O [EPOPROSTENOL]
Phospholipidosis: Negative: based on the absence of positive reported data from WMDD

CCCCc1ncc(/C=C(\Cc2cccs2)C(=O)O)n1Cc1ccc(C(=O)O)cc1 [EPROSARTAN]
Phospholipidosis: Negative: based on the absence of positive reported data from WMDD

COC(=O)CCc1ccc(OCC(O)CNC(C)C)cc1 (stereo unspecified) [ESMOLOL]
Phospholipidosis: Negative: based on the absence of positive reported data from WMDD

CCC(=O)Oc1ccc2c(c1)CC[C@@H]1[C@@H]2CC[C@]2(C)[C@@H](OC(=O)CC)CC[C@@H]12 [ESTRADIOL DIPROPIONATE]
Phospholipidosis: Negative: based on the absence of positive reported data from WMDD

CCCCCCCCCCC(=O)O[C@H]1CC[C@H]2[C@@H]3CCc4cc(O)ccc4[C@H]3CC[C@]12C [ESTRADIOL UNDECYLATE]
Phospholipidosis: Negative: based on the absence of positive reported data from WMDD

C1CNCCN1.C[C@]12CC[C@@H]3c4ccc(OS(=O)(=O)O)cc4CC[C@H]3[C@@H]1CCC2=O [ESTROPIPATE]
Phospholipidosis: Negative: based on the absence of positive reported data from WMDD

C#CC(O)(/C=C/Cl)CC (stereo unspecified) [ETHCHLORVYNOL]
Phospholipidosis: Negative: based on the absence of positive reported data from WMDD

C#C[C@]1(O)CC[C@H]2[C@@H]3CCc4cc(O)ccc4[C@H]3CC[C@@]21C [ETHINYL ESTRADIOL]
Phospholipidosis: Negative: based on the absence of positive reported data from WMDD

CCN(CC)C(C)CN1c2ccccc2Sc2ccccc21 (stereo unspecified) [ETHOPROPAZINE]
Phospholipidosis: Negative: based on the absence of positive reported data from WMDD

CCOC(=O)C1N=C(c2ccccc2F)c2cc(Cl)ccc2NC1=O (stereo unspecified) [ETHYL LOFLAZEPATE]
Phospholipidosis: Positive: strong inducer confirmed by electron microscopy

CCCN(CC)C(CC)C(=O)Nc1c(C)cccc1C (stereo unspecified) [ETIDOCAINE]
Phospholipidosis: Negative: based on the absence of positive reported data from WMDD

CCc1cc2c(s1)-n1c(C)nnc1CN=C2c1ccccc1Cl [ETIZOLAM]
Phospholipidosis: Negative: based on the absence of positive reported data from WMDD

CCOC(=O)c1cncn1[C@H](C)c1ccccc1 [ETOMIDATE]
Phospholipidosis: Negative: based on the absence of positive reported data from WMDD

COc1cc([C@@H]2c3cc4c(cc3[C@@H](O[C@@H]3O[C@@H]5CO[C@@H](C)O[C@H]5[C@H](O)[C@H]3O)[C@H]3COC(=O)[C@H]23)OCO4)cc(OC)c1O [ETOPOSIDE]
Phospholipidosis: Negative: confirmed by electron microscopy

CCOC(=O)/C=C(C)/C=C/C=C(C)/C=C/c1c(C)cc(OC)c(C)c1C [ETRETINATE]
Phospholipidosis: Negative: based on the absence of positive reported data from WMDD

Cc1cc(-c2ccc(/N=N/c3ccc4c(S(=O)(=O)[O-])cc(S(=O)(=O)[O-])c(N)c4c3O)c(C)c2)ccc1/N=N/c1ccc2c(S(=O)(=O)[O-])cc(S(=O)(=O)[O-])c(N)c2c1O.[Na+].[Na+].[Na+].[Na+] [EVANS BLUE]
Phospholipidosis: Negative: based on the absence of positive reported data from WMDD

CC(=O)OCC(CCn1cnc2cnc(N)nc21)COC(C)=O [FAMCICLOVIR]
Phospholipidosis: Negative: based on the absence of positive reported data from WMDD

Cc1c(-c2ccccc2)n(/N=N/n2c(-c3ccccc3)c(C)[n+]3ccccc23)c2cccc[n+]12.[Br-].[Br-] [FAZADINIUM BROMIDE]
Phospholipidosis: Negative: based on the absence of positive reported data from WMDD

CCNC(C)Cc1cccc(C(F)(F)F)c1 (stereo unspecified) [FENFLURAMINE]
Phospholipidosis: Positive: strong inducer confirmed by electron microscopy

CC(C(=O)O)c1cccc(Oc2ccccc2)c1 (stereo unspecified) [FENOPROFEN]
Phospholipidosis: Negative: based on the absence of positive reported data from WMDD

CC(C)=CCC1C(=O)N(c2ccccc2)N(c2ccccc2)C1=O [FEPRAZONE]
Phospholipidosis: Negative: based on the absence of positive reported data from WMDD

Cc1c(-c2ccccc2)oc2c(C(=O)OCCN3CCCCC3)cccc2c1=O [FLAVOXATE]
Phospholipidosis: Negative: based on the absence of positive reported data from WMDD

O=C(NCC1CCCCN1)c1cc(OCC(F)(F)F)ccc1OCC(F)(F)F (stereo unspecified) [FLECAINIDE]
Phospholipidosis: Negative: confirmed by electron microscopy

Cc1onc(-c2c(F)cccc2Cl)c1C(=O)N[C@@H]1C(=O)N2[C@@H]1SC(C)(C)[C@@H]2C(=O)O [FLOXACILLIN]
Phospholipidosis: Negative: based on the absence of positive reported data from WMDD

O=c1[nH]c(=O)n([C@H]2C[C@H](O)[C@@H](CO)O2)cc1F [FLOXURIDINE]
Phospholipidosis: Negative: based on the absence of positive reported data from WMDD

Nc1nc(=O)[nH]cc1F [FLUCYTOSINE]
Phospholipidosis: Negative: based on the absence of positive reported data from WMDD

Nc1nc(F)nc2c1ncn2[C@@H]1O[C@H](COP(=O)(O)O)[C@@H](O)[C@@H]1O [FLUDARABINE PHOSPHATE]
Phospholipidosis: Negative: based on the absence of positive reported data from WMDD

O=C(O)c1ccccc1Nc1cccc(C(F)(F)F)c1 [FLUFENAMIC ACID]
Phospholipidosis: Negative: based on the absence of positive reported data from WMDD

O=c1[nH]cc(F)c(=O)[nH]1 [FLUOROURACIL]
Phospholipidosis: Negative: based on the absence of positive reported data from WMDD

CNCCC(Oc1ccc(C(F)(F)F)cc1)c1ccccc1 (stereo unspecified) [FLUOXETINE]
Phospholipidosis: Positive: strong inducer confirmed by electron microscopy

CCCCCCCCCC(=O)OCCN1CCN(CCCN2c3ccccc3Sc3ccc(C(F)(F)F)cc32)CC1 [FLUPHENAZINE DECANOATE]
Phospholipidosis: Negative: based on the absence of positive reported data from WMDD

CCCCCCC(=O)OCCN1CCN(CCCN2c3ccccc3Sc3ccc(C(F)(F)F)cc32)CC1 [FLUPHENAZINE ENANTHATE]
Phospholipidosis: Negative: based on the absence of positive reported data from WMDD

CCN(CC)CCN1C(=O)CN=C(c2ccccc2F)c2cc(Cl)ccc21 [FLURAZEPAM]
Phospholipidosis: Negative: based on the absence of positive reported data from WMDD

O=C1CN2CCOC2(c2ccccc2F)c2cc(Cl)ccc2N1CCO (stereo unspecified) [FLUTAZOLAM]
Phospholipidosis: Negative: based on the absence of positive reported data from WMDD

COCCCC/C(=N\OCCN)c1ccc(C(F)(F)F)cc1 [FLUVOXAMINE]
Phospholipidosis: Positive: weak inducer based on presence of foamy macrophages and cytoplasmic vacuolations

Nc1nc2ncc(CNc3ccc(C(=O)N[C@@H](CCC(=O)O)C(=O)O)cc3)nc2c(=O)[nH]1 [FOLIC ACID]
Phospholipidosis: Negative: based on the absence of positive reported data from WMDD

CN(CC(=O)N1CCOCC1)Cc1c(Cl)cccc1NC(=O)c1ccccc1 [FOMINOBEN]
Phospholipidosis: Negative: based on the absence of positive reported data from WMDD

CCC(=O)O[C@@H](O[P@](=O)(CCCCc1ccccc1)CC(=O)N1C[C@H](C2CCCCC2)C[C@H]1C(=O)O)C(C)C [FOSINOPRIL]
Phospholipidosis: Negative: based on the absence of positive reported data from WMDD

NC[C@@H]1O[C@H](O[C@H]2[C@@H](O)[C@H](O[C@@H]3[C@@H](O)[C@H](N)C[C@H](N)[C@H]3O[C@H]3O[C@H](CN)[C@@H](O)[C@H](O)[C@H]3N)O[C@@H]2CO)[C@H](N)[C@@H](O)[C@@H]1O [FRAMYCETIN]
Phospholipidosis: Negative: based on the absence of positive reported data from WMDD

NS(=O)(=O)c1cc(C(=O)O)c(NCc2ccco2)cc1Cl [FUROSEMIDE]
Phospholipidosis: Negative: confirmed by electron microscopy

CC[N+](CC)(CC)CCOc1cccc(OCC[N+](CC)(CC)CC)c1OCC[N+](CC)(CC)CC.[I-].[I-].[I-] [GALLAMINE TRIETHIODIDE]
Phospholipidosis: Negative: based on the absence of positive reported data from WMDD

Cc1ccc(C)c(OCCCC(C)(C)C(=O)O)c1 [GEMFIBROZIL]
Phospholipidosis: Negative: confirmed by electron microscopy

CN[C@@H]1[C@@H](O)[C@@H](O[C@@H]2[C@@H](O)[C@H](O[C@H]3O[C@H]([C@@H](C)NC)CC[C@H]3N)[C@@H](N)C[C@H]2N)OC[C@]1(C)O [GENTAMICIN C1]
Phospholipidosis: Positive: strong inducer confirmed by electron microscopy

CN[C@@H]1[C@@H](O)[C@@H](O[C@@H]2[C@@H](O)[C@H](O[C@H]3O[C@H](C(C)N)CC[C@H]3N)[C@@H](N)C[C@H]2N)OC[C@]1(C)O (stereo partly specified) [GENTAMICIN C2]
Phospholipidosis: Positive: strong inducer confirmed by electron microscopy

Cc1ccc(S(=O)(=O)NC(=O)NN2CC3CCCC3C2)cc1 (stereo unspecified) [GLICLAZIDE]
Phospholipidosis: Negative: based on the absence of positive reported data from WMDD

OCC(O)CO [GLYCERIN]
Phospholipidosis: Negative: based on the absence of positive reported data from WMDD

NCC(=O)O [GLYCINE]
Phospholipidosis: Negative: based on the absence of positive reported data from WMDD

COCCOc1cnc(NS(=O)(=O)c2ccccc2)nc1 [GLYMIDINE]
Phospholipidosis: Negative: based on the absence of positive reported data from WMDD

COC1=CC(=O)C[C@@H](C)[C@]12Oc1c(Cl)c(OC)cc(OC)c1C2=O [GRISEOFULVIN]
Phospholipidosis: Negative: based on the absence of positive reported data from WMDD

CCC(C)(C)N/C(N)=N/C#N [GUANCYDINE]
Phospholipidosis: Negative: based on the absence of positive reported data from WMDD

N=C(N)NCCN1CCCCCCC1 [GUANETHIDINE]
Phospholipidosis: Negative: based on the absence of positive reported data from WMDD

O=C1CN=C(c2ccccc2)c2cc(Cl)ccc2N1CC(F)(F)F [HALAZEPAM]
Phospholipidosis: Negative: based on the absence of positive reported data from WMDD

CCCCN(CCCC)CCC(O)c1cc2c(Cl)cc(Cl)cc2c2cc(C(F)(F)F)ccc12 (stereo unspecified) [HALOFANTRINE]
Phospholipidosis: Negative: based on the absence of positive reported data from WMDD

O=C(CCCN1CCC(O)(c2ccc(Cl)cc2)CC1)c1ccc(F)cc1 [HALOPERIDOL]
Phospholipidosis: Positive: strong inducer confirmed by electron microscopy

CC1(C)S[C@@H]2[C@H](N3C(=O)[C@@H](c4ccccc4)NC3(C)C)C(=O)N2[C@H]1C(=O)O [HETACILLIN]
Phospholipidosis: Negative: based on the absence of positive reported data from WMDD

C[N+]1(C)CCN(CC(O)(c2ccccc2)C2CCCCC2)CC1 (stereo unspecified) [HEXOCYCLIUM]
Phospholipidosis: Negative: based on the absence of positive reported data from WMDD
